According to patent US11905417B2, “Anthraquinone compound, liquid crystal composition for dimming including said compound, and dimming element” (Nippon Kayaku Kabushiki Kaisha, priority 2020, dated 2024):

How the values were obtained:
[1] = Evaluation of contrast of compositions at maximum dissolution amount encapsulated in a cell (C=Ky/Kz at λmax); conditions: absorption peak wavelength of the composition in the cell
From the text: The compositions obtained in Examples 3 and 4 and Comparative Examples 6 to 10 were each encapsulated in an element made of two upper and lower glass substrates each having a transparent electrode with an inter-substrate gap of 15 μm, in which the surface of each glass substrate in contact with a liquid crystal was rubbed with a polyamide-based resin and was subjected to a homogeneous orientation treatment. When no voltage was applied in the element subjected to the orientation treatment, the liquid crystal was in a homogeneously oriented state, and dye molecules were also in the same orientation according to the host liquid crystal.
Each of the uniform compositions with no insoluble matter, which were obtained in the above-mentioned “Evaluation of Solubilities of Compounds of Examples according to Present Invention and Compounds of Comparative Examples in Liquid Crystal Material” and which were each made in the maximum dissolution amount, was encapsulated in a cell. In the cell in which each of the uniform compositions was encapsulated, a transmittance (Ky) of linearly polarized light parallel to the orientation direction and a transmittance (Kz) of polarized light perpendicular to the orientation direction were measured, and a contrast (C) at its absorption peak wavelength (λmax) was determined from the following expression. C=Ky/Kz

[2] = Evaluation of solubility of compounds in liquid crystal material, photocurable compound, and photopolymerization initiator; type: physicochemical; conditions: room temperature, 0.5% steps, tested up to about 3.5% by mass
Method: (§1) When a uniform composition with no insoluble matter was obtained, a procedure of further adding 0.005 parts of the compound represented by No. 2, stirring the mixture at room temperature for 1 hour, and then visually observing the appearance of the composition was repeated until a dissolution amount (see the following) reached about 3.5% by mass. The solubility of the compound represented by No. 2 in the liquid crystal material, the photocurable compound, and the photopolymerization initiator was evaluated by the maximum addition amount at which a uniform composition with no insoluble matter was obtained.
When a uniform composition with no insoluble matter was obtained even after 0.030 parts of the compound were added, the maximum dissolution amount was provisionally determined to be “about 3.5% by mass”.

[3] = Evaluation of solubility of compounds in liquid crystal material (maximum dissolution amount, visual observation); type: physicochemical; conditions: in liquid crystal material (cyanobiphenyl/terphenyl mixture), room temperature, 0.5% steps, tested up to about 4.5% by mass
Method: as §1, with “0.003” for “0.005”, “4.5%” for “3.5%”, “material” for “material, the photocurable compound, and the photopolymerization initiator”
When a uniform composition with no insoluble matter was obtained even after 0.024 parts of the compound were added, the maximum dissolution amount was provisionally determined to be “about 4.5% by mass”.

| Compound | λmax(nm) [1] [nm] | Maximum dissolution amount [2] [% by mass] | Maximum dissolution amount [3] [% by mass] |
| --- | --- | --- | --- |
| CC(C)(C)c1ccc(Sc2cccc3c2C(=O)c2cccc(Sc4ccc5ccccc5c4)c2C3=O)cc1 [Formula(A)] | 462 | 0.5 | 1.0 |
| CCCCCC(C)CCC(=O)Oc1ccc(Sc2cccc3c2C(=O)c2cccc(Sc4ccc(OC(=O)CCC(C)CCCCC)cc4)c2C3=O)cc1 (stereo not drawn) [Formula(E)] | 460 | 1.0 | 2.0 |
| CC(CC(=O)Oc1ccc(Sc2cccc3c2C(=O)c2cccc(Sc4ccc(OC(=O)CC(C)CC(C)(C)C)cc4)c2C3=O)cc1)CC(C)(C)C (stereo not drawn) [Formula(D)] | 462 | 1.0 | 2.0 |

Other lines, results leading:

| λmax(nm) [1] [nm] | Maximum dissolution amount [2] [% by mass] | Maximum dissolution amount [3] [% by mass] | Compound |
| --- | --- | --- | --- |
| 460 | 3.5 | 4.5 | CCCCCCCCC(CCCCCC)C(=O)Oc1ccc(Sc2cccc3c2C(=O)c2cccc(Sc4ccc(OC(=O)C(CCCCCC)CCCCCCCC)cc4)c2C3=O)cc1 (stereo not drawn) [No.2] |
| 462 | 3.5 | 3.5 | CCCCC(CC)C(=O)Oc1ccc(Sc2cccc3c2C(=O)c2cccc(Sc4ccc(OC(=O)C(CC)CCCC)cc4)c2C3=O)cc1 (stereo not drawn) [No.3] |
